Measurements from patent US10028949B2, “Parenteral formulations of lipophilic pharmaceutical agents and methods for preparing and using the same” (priority 2011, dated 2018).
Like-named read-outs stand apart in the source and are kept apart here.

Columns and labels:
[1] = Stability of Bu formulations by HPLC; assay type: physicochemical; conditions: for stability maintained: stock formulation diluted with D5W
Experimental: It was initially important to describe short-term stability of the Bu/acetone/PEG mixture. This was necessary to determine if the vacuum-extraction step could be utilized without undue chemical degradation of Bu. The Bu (5 mg/mL) in acetone/PEG400 (1:2, v/v) was incubated at room temperature and quantified by HPLC after 0, 1, 2, 4, 8 and 24 hours. Second, the inventors confirmed that Bu would be stable in the VE-acetone/PEG/Bu complex. Therefore, to determine long-term stability Bu was dissolved in acetone (10 mg/mL), then mixed with PEG 400 (ratio 1:2, v/v). The acetone was extracted from the mixture under vacuum at room temperature (RT). The VE-acetone/PEG400/Bu was stored either at room temperature or 37° C. for 2 months in sealed tubes. Finally, Bu (1 mg/mL) in the final use formulation of VE-acetone/PEG 400/D5W (0:40:60, v/v/v), was incubated at room temperature and analyzed by HPLC at 0, 1, 2, 4, 8 and 15 hours to determine short-term stability. Triplicate samples were quantitatively analyzed with HPLC at all time points after appropriate dilution of the samples in the stability studies.
Bu was dissolved at a concentration of about 10 mg/mL in acetone only or in VE-acetone/PEG (prototype stock solvent vehicle) and incubated at RT (22° C.) and at 37° C. The resulting Bu concentration was measured by HPLC in samples taken immediately after solubilization, then every few hours for 8 hours, and then at gradually increasing time intervals for up to 60 days.

erythrocytes = experiment: Hemolysis studies in vitro; assay type: cell-based; conditions: drug concentrations of 100 μg/mL or more
Source text: The hemolytic potential of the final use-formulation should also be minimal, since the terminal use formulation/infusate contain Bu and PEG as the only significant solutes to be infused, i.e. this is basically D5W with a moderate amount of PEG (40%, v/v) as its main additive. The procedure of Parthasarathy et al. was used to examine the hemolytic potential of a few selected formulations, and the LD50 values of the most optimal formulation was constructed as previously described (Parthasarathy et al., 1994). Briefly, heparinized blood was mixed with an equal volume of Alsever's solution (Alsever and Ainslie, 1941). This mixture was washed twice in PBS, and a 10% (volume per volume, v/v) erythrocyte/PBS solution was then prepared and mixed with increasing amounts of PEG (essentially the VE-acetone/PEG prototype vehicle) with or without addition of D5W and with or without Bu. The resulting mixtures were incubated for 4 hours at 37° C. […] The release of hemoglobin in the supernatant (i.e., hemolysis) was determined spectrophotometrically at a wavelength of 550 nm. Maximum lysis was measured against a reference erythrocyte solution that had been lysed by hypotonic shock. The hemolytic potential of the vehicle and the complete final use-formulation (Bu/VE-acetone/PEG/D5W) was evaluated as described (Parthasarathy et al., 1984). […]

[2] = Parenteral busulfan pharmacology in mice
Experimental: Swiss Webster mice with a body weight of 25-30 g were used for the in vivo pharmacology experiments (Harlan-Sprague-Dawley, Houston, Tex.). The animals were allowed a minimum of 3-4 days after arrival to acclimatize to the new environment and allowed free access to commercial feed and hyperchlorinated, reverse-osmosis purified water prior to and during the experimentation period. The animal-housing facilities meet the requirements of the USDA, NIH, and DHHS.
Busulfan at a dose of 10 mg/kg BW was used as an appropriate and representative single dose that could be administered as a slow IV bolus injection over 3-4 min.
The Bu was formulated in the prototype VE-acetone/PEG vehicle to a stock concentration of about 10 mg/mL and then diluted with D5W to 1 mg/mL and 2 mg/mL (in repeated experiments) so the total dose of 10 mg/kg could be injected in a volume of about 250 μL and 125 μL, respectively, in a tail vein. The Bu concentrations of the final use-formulation were confirmed by HPLC prior to administration.
No anticonvulsant premedication was used in the animals in these experiments to avoid the possible induction of microsomal liver enzymes that could modify Bu metabolism. For the same reason the animals were unanesthetized during the drug injection, only physically restrained.
Blood samples (0.5-1.0 mL) were procured through cardiac puncture under Isoflurane-induced general anesthesia. These samples were drawn in preheparinized tubes at selected time points prior to the drug infusion (“blank”), and from 5 min to 4 hours after drug injection for determination of Bu concentrations. The blood was centrifuged at 1,000×g for 10 min, and plasma was removed and stored at −80° C. until extracted and assayed by HPLC.

[3] = for Solubility / Solubility (mg/mL): room temperature; for Solubility (mg/mL): listed as Bu
[4] = cited from earlier work
[5] = cited from earlier work; for incidence of neurotoxicity, especially serious generalized seizure activity: after Bu-based conditioning therapy
[6] = in vivo; cited from earlier work

## CS(=O)(=O)OCCCCOS(C)(=O)=O [Busulfan, 1,4-butanediol dimethanesulfonate]
[1]; Bu/VE-acetone/PEG stock formulation, approximately 5 mg/mL, RT
  time stable in solution, stock formulation: ≥ 60 days
[1]; VE-acetone/PEG diluted with aqueous diluent to 1 mg/mL, RT
  time stable, final use-formulation: at least 15 hours
[1]; in DMSO
  stability in DMSO: rapidly started degrading
[1]; in acetone and DMA, RT
  time stably dissolved: at least 7 days
[1]; reconstituted with D5W, 0.5 to 2 mg/mL, RT
  time stable, final clinical use-formulation: at least 15 hours
[1]; up to 15 hours at 1 mg/ml
  stability maintained: ~100%
[1]; up to 25 hours at 0.5 mg/ml
  stability maintained: ~100%
erythrocytes
  Bu-dependent lysis: barely exceeded background levels
[2]; Swiss Webster, mouse, plasma, iv, 10 mg/kg
  half-life: 2.5 to 3.5 h
[2]; mice, 10 mg/kg IV, acute 4-hour observation period
  tolerability of injections: well tolerated
[2]; mice, 10 mg/kg, urine samples up to 4 hours
  hemolysis in vivo (urine samples): no sign of hemolysis
[2]; mice, IV 10 mg/kg BW
  Bu plasma concentrations: for several hours remained in the cytotoxic range
[3]; Solvent: DMA
  Solubility: 49.2 mg/mL
  Solubility (mg/mL): more than 15 mg/mL
[3]; Solvent: DMSO
  Solubility: 77.9 mg/mL
  Solubility (mg/mL): more than 15 mg/mL
[3]; after mixing with PEG and extraction of the acetone
  concentration of Bu stably bound in PEG alone: 5000 to 10000 µg/mL
[4]; Solvent: Acetone, in literature
  Solubility: ~25 mg/mL
[4]; Solvent: Water (The Merck Index)
  Solubility (mg/mL): Negligible (The Merck Index)
[5]; adults
  incidence of neurotoxicity, especially serious generalized seizure activity: ≤ 10%
[5]; children
  incidence of neurotoxicity, especially serious generalized seizure activity: approximately 7%
[5]; without overt seizure activity
  EEG abnormalities, patients: up to 60%
[6]
  terminal half-life in blood: 2 to 4 h
